Values of other authors as cited in patent US7423028B2, “Injectable pharmaceutical compositions comprising sodium diclofenac and β-cyclodextrin” (Ibsa Institut Biochemique S.A., priority 2004, dated 2008).

Compound: O=C([O-])Cc1ccccc1Nc1c(Cl)cccc1Cl.[Na+] [sodium diclofenac, 2-[(2,6-dichlorophenyl)amino]benzeneacetic acid monosodium salt]
- solubility in water: sparingly soluble in water
